Results from patent US20210228590A1, “TREATING INFLUENZA USING SUBSTITUTED POLYCYCLIC PYRIDONE DERIVATIVES AND PRODRUGS THEREOF” (priority 2018, published 2021).

Legend:
[1] = in vivo
[2] = rat, in vivo, po
[3] = tested on: influenza A virus A/PR/8/34; test: Mouse model for delayed treatment, lethal infection: survival and body weight; format: in vivo, BALB/c mice
[4] = tested on: influenza A virus A/PR/8/34; test: Mouse model for delayed treatment: virus titers in lungs; format: in vivo, BALB/c mice; conditions: for virus in lungs: days 8 and 10 post infection, treatment from 72 hours, limit of detection 1.50 log10 TCID50/ml

CC(=O)Oc1c2n(ccc1=O)N([C@@H]1c3ccccc3SCc3c1ccc(F)c3F)[C@@H]1COCCN1C2=O [II-4]
BA(%) [1]: 20.0%

COC(=O)OCOc1c2n(ccc1=O)N([C@@H]1c3ccccc3SCc3c1ccc(F)c3F)[C@@H]1COCCN1C2=O [II-6, baloxavir marboxil]
concentration of Compound II-6 in plasma samples [2]: a determination limit or less | survival ([3]; BXM 15 mg/kg orally twice daily for 5 days from 24, 48, or 72 hours post infection, observed to day 28): all mice treated with 1.5 and 15 mg/kg of BXM survived | survival time versus vehicle-treated group ([3]; BXM from 24, 48, 72, and 96 hours post infection, P<0.01 or P<0.001): Significant differences in survival time | body weight change versus vehicle-treated group ([3]; BXM from 24, 48, 72, or 96 hours post infection): significantly less reduction of body weight compared with the vehicle-treated group | body weight loss versus OSP-treated group ([3]; BXM from 24, 48, 72 or 96 hour post infection, on indicated days): significantly less body weight loss than did the OSP-treated group | survival time versus OSP-treated group ([3]; BXM given from 72 and 96 hours post infection, OSP 5 mg/kg): significantly prolonged compared with that in OSP-treated group | virus titers in lung versus vehicle-treated group ([4]; BXM 1.5 and 15 mg/kg for 5 days from 72 hours post infection, days 4 and 6 post infection): significantly reduced compared with those in the vehicle-treated group | virus titer in lung versus OSP-treated group ([4]; BXM 1.5 and 15 mg/kg from 72 hours post infection, days 4 and 6 post infection): significantly lower than that in the group treated with 5 mg/kg of OSP | virus in lungs [4]: No virus was detected

O=C1c2c(O)c(=O)ccn2N([C@@H]2c3ccccc3SCc3c2ccc(F)c3F)[C@@H]2COCCN12 [III-2, baloxavir acid]
BA(%) [1]: 4.2%

CCOC(=O)C1=C[C@@H](OC(CC)CC)[C@H](NC(C)=O)[C@@H](N)C1 [OSP, Oseltamivir phosphate, reference compound]
survival time versus vehicle-treated group ([3]; OSP 5 mg/kg twice daily for 5 days from 24 or 48 hours post infection): survived for a significant longer period than the vehicle-treated group | protection level (survival) ([3]; OSP 5 mg/kg twice daily for 5 days from 72 or 96 hours post infection): protection level was decreased | body weight loss versus control group ([3]; OSP from 24 and 48 hours post infection): Significant inhibitions in body weight loss | body weight loss versus vehicle-treated group ([3]; OSP from 72 and 96 hours post infection): body weight loss comparable to the vehicle-treated group | virus titers in lung versus vehicle-treated group ([4]; OSP 5 mg/kg from 72 hours post infection, day 4 post infection): Significant reduction in virus titers | virus in lungs [4]: No virus was detected
